Data published in patent US5731155A, “Compositions for inhibition of intracellular transcription factors and methods therefor” (Washington University, priority 1996, dated 1998).
Where a SMILES comes first, the peptide text is derived from it. [ ]: non-standard residue; d: D form. pY = N[C@@H](Cc1ccc(OP(=O)(O)O)cc1)C(=O)O

Assays:
p91 = molecular target: T1, p91 (Homo sapiens, UniProt P42224); experiment: Electrophoretic mobility shift assay (EMSA) of IFNγ-induced p91 activation in Colo-205 homogenates; type: biochemical; settings: phosphopeptide 3 μM
T1 construct: endogenous in cells; host or cells: Colo-205 (human adenocarcinoma) cell homogenates
T1 sequence (P42224 1-750): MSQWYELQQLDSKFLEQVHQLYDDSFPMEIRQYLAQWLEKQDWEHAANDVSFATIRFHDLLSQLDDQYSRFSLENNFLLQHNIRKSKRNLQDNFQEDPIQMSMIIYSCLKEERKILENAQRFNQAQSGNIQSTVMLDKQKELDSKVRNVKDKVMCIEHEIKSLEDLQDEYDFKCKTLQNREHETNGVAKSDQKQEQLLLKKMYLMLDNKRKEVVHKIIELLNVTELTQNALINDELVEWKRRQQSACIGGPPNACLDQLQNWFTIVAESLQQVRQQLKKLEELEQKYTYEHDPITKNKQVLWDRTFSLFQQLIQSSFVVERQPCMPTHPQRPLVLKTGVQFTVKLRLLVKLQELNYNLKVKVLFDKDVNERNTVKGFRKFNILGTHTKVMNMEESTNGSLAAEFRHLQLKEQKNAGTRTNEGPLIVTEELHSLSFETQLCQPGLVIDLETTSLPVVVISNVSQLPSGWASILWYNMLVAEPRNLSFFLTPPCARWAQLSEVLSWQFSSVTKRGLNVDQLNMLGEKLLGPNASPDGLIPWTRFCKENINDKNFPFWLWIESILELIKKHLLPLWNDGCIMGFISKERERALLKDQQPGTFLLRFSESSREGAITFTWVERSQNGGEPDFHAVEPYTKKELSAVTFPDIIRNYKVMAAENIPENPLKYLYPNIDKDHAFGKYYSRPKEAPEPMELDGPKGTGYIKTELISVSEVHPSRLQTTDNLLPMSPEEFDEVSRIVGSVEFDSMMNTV
Source text: For this example, the finding that the latent IFNγ inducible transcription factor, p91, can be activated by IFNγ in a cell free system (Igarashi et al., Mol Cell Biol 13:1634-1640, 1993 which is incorporated by reference) was utilized to determine the biologic significance of the IFNγ induced tyrosine phosphorylation of the Y440 residue in the IFNγ receptor molecule. Colo-205 homogenates were stimulated with 1900 IRU of human IFNγ and p91 activation monitored using an electrophoretic mobility gel shift assay (EMSA) that employed a ^32 P-labeled 18 bp probe derived from the FcγR I gene promoter (Pearse et al., Proc Natl Acad Sci 90:4314-4318, 1993 which is incorporated by reference). The EMSAs were carried out essentially as described (Igarashi et al., supra). […] The reactions were then electrophoresed through a 6% polyacrylamide gel in 0.25×TBE for 3 hours at 150 V. Gels were dried and subsequently analyzed by autoradiography. […] Specificity of interactions were determined by the addition of 350 ng of the unlabeled GRR probe or 560 ng of the unlabeled 41 base pair double stranded oligonucleotide containing the ISRE of ISG15 (5'-GATCCATGCCTCGGGA-[…]-3' SEQ ID NO: 14) (David and Larner, Science 257:813-815, 1992 which is incorporated by reference). […]

IFNγ receptor α chain = experiment: IFNγ dependent tyrosine phosphorylation of the IFNγ receptor α chain in Colo-205 cells (4G10 western blot); type: cell-based, human; settings: pretreatment of Colo-205 cells with 1 mM
Source text: For these experiments, Colo-205, a human adenocarcinoma cell line obtained from the ATCC, was used because it was known to express a high number of IFNγ receptors (10,000 receptors/cell) and has been well characterized with regard to both biologic responsiveness to IFNγ and IFNγ receptor […] phosphorylation (Hershey and Schreiber, 1989; Hershey et al., 1990 both of which are incorporated by reference). Colo-205 cells (5-10×10^7) were resuspended in one ml of PBS-10% FCS and were then incubated at 37° C., either in the presence or absence of rHuIFNγ (10,000 IRU). Purified recombinant human IFNγ was provided by Dr. Susan Kramer of Genentech, Inc. (South San Francisco, Calif.). […] Purified rHuIFNγ was radioiodinated, using Bolton Hunter reagent (ICN Chemicals, Radioisotope Division, Irvine, Calif.) to specific activities of 6.5-17.8 μCi/μg as described in Celada et al. (J Clin Invest 76:2196-2205, 1985 which is incorporated by reference). The reaction was stopped by adding 4 mls of ice-cold PBS. Cells were pelleted, washed once in ice-cold PBS, and then lysed in one ml of lysis buffer (25 mM Tris-HCl (pH 8.0), 1% NP-40, 150 mM NaCl, 1 mM sodium orthovanadate, 10 mM NaF, 1 mM PMSF, 5mM iodoacetamide, […] leupeptin and aprotinin). Solubilized cells were centrifuged at 15,000×g to remove cell nuclei and the supernatants were then incubated with 10 μg of GIR-94 for 30 minutes at 4° C. Protein G sepharose was added to the reaction mixture and the incubation continued for an additional 30 minutes. […]
To determine the amount of receptor precipitated at each time point, aliquots from each immunoprecipitate were subjected to western blot analysis using a monoclonal antibody (GIR-94, a murine antibody IgG2b) that is specific for the human IFNγ receptor extracellular domain. In the absence of added IFNγ, no tyrosine phosphorylated receptor was detected (FIG. 1, lane 1). […]

Colo-205 cells = experiment: IFNγ dependent MHC class II induction on Colo-205 cells; type: cell-based, human; settings: pretreatment of Colo-205 cells with 1 mM
Procedure: To further characterize the tyrosine phosphorylation of the […] receptor and to partially validate its biologic significance, concomitant dose-response phosphorylation and MHC class II induction analyses were performed. Colo-205 cells (1×10^8 cells/ml) were stimulated for 5 minutes with the indicated concentrations of rHuIFNγ as shown in FIG. 2. Cells were lysed and the IFNγ receptor immunoprecipitated, subjected to SDS-PAGE and electrophoretically transferred to nitrocellulose membranes as described above. Membranes were blotted with the mAb 4G10 (anti-phosphotyrosine) as described. Colo-205 cells (1×10^8 cells/ml) were also stimulated for 5 minutes with the indicated concentrations of rHuIFNγ, washed, and incubated an additional 48 hours in the absence of rHuIFNγ. MHC class II expression was quantitated by flow cytometric analysis.

[1] = Specific antiviral activity of rHuIFNγ; settings: purified recombinant human IFNγ

In the case of `C[C@@H](O)[C@H](N)C(=O)N[C@@H](CO)C(=O)N[C@@H](Cc1ccccc1)C(=O)NCC(=O)N[C@@H](Cc1ccc(OP(=O)(O)O)cc1)C(=O)N[C@@H](CC(=O)O)C(=O)N[C@@H](CCCCN)C(=O)N1CCC[C@H]1C(=O)N[C@@H](Cc1c[nH]cn1)C(=O)O` [SEQ ID NO:3, Thr-Ser-Phe-Gly-Xaa-Asp-Lys-Pro-His] (H-TSFG[pY]DKPH-OH), the “inhibition of formation of activated p91-labeled probe complex” value (p91) is reported as 61%.

In the case of `CO[C@H]1[C@@H](OC)C[C@H](C)[C@@H](OC)C2=CC(=O)C=C(NC(=O)/C(C)=C/C=C\[C@H](OC)[C@@H](OC(N)=O)/C(C)=C/[C@@H]1C)C2=O` [herbimycin A, reference compound], the “IFNγ dependent tyrosine phosphorylation of the IFNγ receptor α chain” value (IFNγ receptor α chain) is reported as “inhibited” and the “IFNγ dependent MHC class II induction” value (Colo-205 cells) is reported as “blocked”.

B1: rHuIFNγ: Purified recombinant human IFNγ provided by Genentech, Inc. (protein, UniProt P01579 24-161, looked up)
Interferon gamma: QDPYVKEAENLKKYFNAGHSDVADNGTLFLGILKNWKEESDRKIMQSQIVSFYFKLFKNFKDDQSIQKSVETIKEDMNVKFFNSNKKKRDDFEKLTNYSVTDLNVQRKAIHELIQVMAELSPAAKTGKRKRSQMLFRG
With B1 the specific antiviral activities [1] was 3.8×10^7 IRU/mg.
